Measured values published in patent publication US20250051375A1, “ANTI-HIV COMPOUNDS” (Gilead Sciences, Inc., priority 2023, published 2025).
≈ marks a conversion by molar mass, not a printed value. Read-outs that look alike come from different tables or passages of the source.

Legend:
[1] = PBS Stability Assay; type: physicochemical; conditions: phosphate buffered saline pH 7.4; for half-life at 2 μM: buffer, pH 7.4, 2 μM, read-out: PBS T½
Procedure: Reagents. Stock solutions of test compounds in dimethyl sulfoxide (DMSO) having a final concentration of 10 mM were prepared and used in all experiments. Sekisui XenoTech (Kansas City, KS) provided pooled intestinal S9 fractions. All other chemicals were purchased from Sigma-Aldrich (St. Louis, MO) or VWR (West Chester, PA). Internal Standard/Quench (IS/Q) used to stop reactions was 100 nM labetalol in (by volume) formic acid (1%) and acetonitrile (99%).
PBS Stability Assay: For each test compound, an aliquot of the test compound was added to phosphate buffered saline (137 mM NaCl, 2.7 mM KCl, 10 mM phosphate buffer), pH 7.4. The incubation was initiated by the addition of the test compound to PBS to a final concentration of 2 μM. At 0, 10, 20, 30, 60 and 120 min, 25 μL aliquots of the incubation mixture were transferred to plates containing 225 μl of IS/Q solution. After quenching, the plates were centrifuged at 3000×g for 30 minutes. 150 μL aliquots of each supernatant were transferred to new plates and 150 μL water was added. Aliquots (10 μL) of the prepared samples were analyzed on a Thermo Q-Exactive mass spectrometer as described below.
Liquid Chromatography-Mass Spectrometry: Quantification of test compounds and control substrate was performed by analyte/internal standard peak area ratio (PAR) values measured on a Thermo Q-Exactive mass spectrometer coupled to a Dionex UltiMate 3000 HPLC with a Leap Technologies HTC PAL autosampler. The column used for analysis was a Thermo Scientific Hypersil GOLD (1.9 μm particle size, 50×2.1 mm). Mobile phase A consisted of 0.1% (v/v) formic acid in water. Mobile phase B consisted of 0.1% (v/v) formic acid in acetonitrile. Elution of analytes was achieved by a series of linear gradients varying the proportions of A and B. The mass spectrometer was calibrated on a weekly basis and mass tolerance of 5 ppm was used.
Data Analysis. Metabolic stabilities were determined by measuring the rates of disappearance of test compound and positive control substrate. Data (% of substrate remaining) were plotted on a semi-log scale and fitted using an exponential decline model:
where • Ct% of substrate remaining at time=t • C0% of substrate remaining at time=0 • t time • T½ half-life • The Half-life (T½) is determined by the following equation:
[formula] • Assuming a first-order reaction, the slope (k) is extrapolated from the aforementioned plotted data.

[2] = Solubility in FaSSIF; conditions: 23 °C, pH 6.5, fassif, thermodynamic from solid
Procedure: Buffer Preparation: Fasted State Simulated Intestinal Fluid (FaSSIF): Simulated Intestinal Fluid (SIF) powder containing a complex of Taurocholate and Lecithin (4:1 molar ratio) was obtained from Biorelevant. 0.056 g of SIF powder was added to 25 mL of buffer, adjusted to pH 6.5, containing 0.011 g of NaOH (pellets), 0.099 g of NaH2PO4 (monohydrate), and 0.155 g of NaCl. The buffer was prepared with HPLC H2O. The SIE powder was stirred until completely dissolved and allowed to stand for 2 hours.
Test Compounds: Each test compound was placed in a vial containing approximately 7 mg of material. Aliquots were weighed out for each assay media at each time point to be analyzed. The buffer was added to each vial such that the final dose concentration of 5 mg/mL was achieved. Samples were then vortexed for 5-10 seconds.
The plate was sealed with a pierceable heat seal and analyzed by HPLC-UV.

[3] = target: bovine intestinal alkaline phosphatase (Bos taurus (Bovine), UniProt P19111); experiment: BiALP: conversion by bovine intestinal alkaline phosphatase; type: in vitro ADME; conditions: 2 μM substrate, 100 ng/mL iALP, Tris pH 7.8, 37° C., 60 minutes
Procedure: Fosamprenavir and its parent compound (amprenavir) were purchased from Millipore Sigma (St. Louis, MO). Test compounds, Intermediate A, fosamprenavir, and amprenavir were each separately dissolved in dimethyl sulfoxide (DMSO) at a concentration of 10 mM to form stock solutions.
All other chemicals were purchased from Millipore Sigma (St. Louis, MO) and Thermo Fisher Scientific (Waltham, MA). […] Internal Standard/Quench (IS/Q) was 100 nM labetalol in 99:1 (v/v) acetonitrile/formic acid.
Incubations were performed with Tris buffer alone (0.1 M Tris-HCl pH 7.8 containing 1 mM MgCl2 and 1 mM ZnCl2) or the same Tris buffer further containing 100 ng/mL iALP (0.01 units/mL). Triplicate 100 μL aliquots of Tris buffer±iALP were warmed to 37° C. and the reactions were initiated by the addition of the test compound or fosamprenavir to obtain final substrate concentrations of 2 μM. Incubations were then continued at 37° C. At 60 minutes, reactions were terminated by the addition of 200 μl of IS/Q and mixed by pipette. […] Aliquots (150 μL) of the supernatants were transferred to fresh plates containing 150 μL of water. Aliquots (15 μL) of the diluted supernatants were analyzed by mass spectrometry as described below.
Quantification of the test compounds and fosamprenavir was performed by analyte/internal standard peak area ratios (PARs) with comparison to 2 μM Intermediate A and amprenavir, respectively. The LC instrumentation consisted of a Thermo Scientific Vanquish pump and a Thermo Hypersil Gold column (1.9 μm particle size, 2.1×50 mm). […] The MS instrument was a Thermo Q Exactive™ Plus operating in positive ionization mode with mass tolerance of 5 ppm and calibrated on a twice weekly basis.

[4] = system: HIV-1 IIIB strain; experiment: MT-4 HIV Wild Type Virus Infection Assay (IIIB Virus); type: cell-based; conditions: MT-4 cells acutely infected with HIV-1 IIIB, 5 day incubation, Cell-titer glo
Procedure: Test compounds and controls were serially diluted and spotted in replicate into 384 well black assay plates via acoustic transfer (Echo). MT-4 cells were grown in batch, centrifuged and resuspended into fresh CCM media (RPMI w/10% FBS, 1% PS) at 2×10^6 cells/ml. MT-4 cells were acutely infected with HIV-1 IIIB strain. The size of each infection mix was scaled by the number of sample plates to be tested. Each infection mix was transferred into 5 mL closed tubes and nutated rapidly on a shaker at 37° C. incubator for 1 hour. The infection mixes were then diluted 25× in fresh cell culture media and then added to assay plates at 40 μL per well using a ViaFlo 384 pipettor. After 5 day incubation at 37° C. in a CO2 incubator, assay plates were processed with Cell-titer glo reagent using a ViaFlo 384 with an addition/mixing program. Plates were read immediately on Envision reader. Assay signals were plotted and dose response curves generated to determine individual compound EC50s.

[5] = Human immunodeficiency virus 1, IIIB, MT4, 120 h

Sequence of bovine intestinal alkaline phosphatase (P19111 20-506): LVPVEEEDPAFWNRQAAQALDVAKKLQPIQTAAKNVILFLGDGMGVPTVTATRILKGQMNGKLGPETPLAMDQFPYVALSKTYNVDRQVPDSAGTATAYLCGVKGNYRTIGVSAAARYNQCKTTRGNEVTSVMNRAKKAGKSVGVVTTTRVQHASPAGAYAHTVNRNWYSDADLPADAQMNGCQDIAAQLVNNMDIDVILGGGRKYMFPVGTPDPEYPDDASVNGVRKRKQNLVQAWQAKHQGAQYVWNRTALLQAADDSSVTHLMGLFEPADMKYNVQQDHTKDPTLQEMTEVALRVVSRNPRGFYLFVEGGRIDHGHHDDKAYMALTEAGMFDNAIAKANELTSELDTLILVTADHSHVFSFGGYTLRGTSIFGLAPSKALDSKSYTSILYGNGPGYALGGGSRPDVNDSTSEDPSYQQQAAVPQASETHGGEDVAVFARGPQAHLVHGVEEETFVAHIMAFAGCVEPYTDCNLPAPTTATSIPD

Row | Compound | half-life at 2 μM [1] [h] | solubility at 2 h [2] [mg/mL] | [Compound] [3] [nM] | EC50 [4, 5] [µM] | solubility ([2]; FaSSIF (pH 6.5) solubility, FaSSIF pH 6.5, dose 5 mg/mL, 2-hour incubation, ambient temperature) [mg/mL] | EC50 ([4]; Human immunodeficiency virus 1, IIIB, MT4, 120 h, read-out: EC50) [µM] | PBS T½ ([1]; 2 μM) [h] | EC50 [4] [µM] | biALP Intermediate A or [Amprenavir] (% of total) [3] | [Intermediate A] or [Amprenavir] ([3]; parent formed) [nM]
1 | COC(=O)N[C@H](C(=O)N[C@@H](Cc1ccc(C#Cc2cnc(N3CC4CCC(C3)N4C3COC3)nc2)cc1)[C@H](CN(Cc1c(F)cc(-c2ccn(C(F)F)n2)cc1F)NC(=O)[C@@H](NC(=O)OC)C(C)(C)C(F)(F)F)OC(=O)CC(C)(C)c1c(CC(=O)Nc2ccc(S(=O)(=O)O)cc2)cc(C)cc1OP(=O)(O)O)C(C)(C)C(F)(F)F [Example 90] | 5.46 | 4.24 (≈ 2590 µM) | 1746 | 0.101 |  |  |  |  |  | 
2 | COC(=O)N[C@H](C(=O)N[C@@H](Cc1ccc(C#Cc2cnc(N3CC4CCC(C3)N4C3COC3)nc2)cc1)[C@H](CN(Cc1c(F)cc(-c2ccn(C(F)F)n2)cc1F)NC(=O)[C@@H](NC(=O)OC)C(C)(C)C(F)(F)F)OC(=O)CC(C)(C)c1c(CC(=O)NCC(C)(C)C(=O)O)cc(C)cc1OP(=O)(O)O)C(C)(C)C(F)(F)F [Example 103] | 5.52 | 0.08 (≈ 50.5 µM) | 1589 | 0.132 |  |  |  |  |  | 
3 | COC(=O)N[C@H](C(=O)N[C@@H](Cc1ccc(C#Cc2cnc(N3CC4CCC(C3)N4C3COC3)nc2)cc1)[C@H](CN(Cc1c(F)cc(-c2ccn(C(F)F)n2)cc1F)NC(=O)[C@@H](NC(=O)OC)C(C)(C)C(F)(F)F)OC(=O)CC(C)(C)c1c(CC(=O)N[C@H]2C[C@H](C(=O)O)C2)cc(C)cc1OP(=O)(O)O)C(C)(C)C(F)(F)F [Example 101] | 8.09 | 1.53 (≈ 964 µM) | 1688.4 | 0.0606 |  |  |  |  |  | 
4 | COC(=O)N[C@H](C(=O)N[C@@H](Cc1ccc(C#Cc2cnc(N3CC4CCC(C3)N4C3COC3)nc2)cc1)[C@H](CN(Cc1c(F)cc(-c2ccn(C(F)F)n2)cc1F)NC(=O)[C@@H](NC(=O)OC)C(C)(C)C(F)(F)F)OC(=O)OCOC(=O)CC(C)(C)c1c(C)cc(C(=O)O)cc1OP(=O)(O)O)C(C)(C)C(F)(F)F [Example 2] | 6.52 |  | 1359.6 |  | 0.68 (≈ 440 µM) | 0.0021 |  |  |  | 
5 | COC(=O)N[C@H](C(=O)N[C@@H](Cc1ccc(C#Cc2cnc(N3CC4CCC(C3)N4C3COC3)nc2)cc1)[C@H](CN(Cc1c(F)cc(-c2ccn(C(F)F)n2)cc1F)NC(=O)[C@@H](NC(=O)OC)C(C)(C)C(F)(F)F)OC(=O)CC(C)(C)c1c(CC(=O)NC(CCCC(=O)O)CC(=O)O)cc(C)cc1OP(=O)(O)O)C(C)(C)C(F)(F)F (some centres unmarked) [Example 37] | 7.32 | 4.46 (≈ 2720 µM) | 1518.9 | 0.0418 |  |  |  |  |  | 
6 | COC(=O)N[C@H](C(=O)N[C@@H](Cc1ccc(C#Cc2cnc(N3CC4CCC(C3)N4C3COC3)nc2)cc1)[C@H](CN(Cc1c(F)cc(-c2ccn(C(F)F)n2)cc1F)NC(=O)[C@@H](NC(=O)OC)C(C)(C)C(F)(F)F)OC(=O)CC(C)(C)c1c(CC(=O)NC(CCCC(=O)O)C(=O)O)cc(C)cc1OP(=O)(O)O)C(C)(C)C(F)(F)F (some centres unmarked) [Example 42] |  | 4.02 (≈ 2470 µM) | 1335 |  |  |  | 6.025 | 0.0491 |  | 
7 | COC(=O)N[C@H](C(=O)N[C@@H](Cc1ccc(C#Cc2cnc(N3CC4CCC(C3)N4C3COC3)nc2)cc1)[C@H](CN(Cc1c(F)cc(-c2ccn(C(F)F)n2)cc1F)NC(=O)[C@@H](NC(=O)OC)C(C)(C)C(F)(F)F)OC(=O)CC(C)(C)c1c(CC(=O)Nc2ccccn2)cc(C)cc1OP(=O)(O)O)C(C)(C)C(F)(F)F [Example 13, (5S,10S,11S,14S)-8-(4-(1-(difluoromethyl)-1H-pyrazol-3-yl)-2,6-difluorobenzyl)-11-(4-((2-(8-(oxetan-3-yl)-3,8-diazabicyclo[3.2.1]octan-3-yl)pyrimidin-5-yl)ethynyl)benzyl)-3,6,13,16-tetraoxo-5,14-bis(1,1,1-trifluoro-2-methylpropan-2-yl)-2,17-dioxa-4,7,8,12,15-pentaazaoctadecan-10-yl 3-methyl-3-(4-methyl-2-(2-oxo-2-(pyridin-2-ylamino)ethyl)-6-(phosphonooxy)phenyl)butanoate] | 1.98 |  | 1660.2 | 0.223 |  |  |  |  | 0.1 % of total | 1.8
8 | COC(=O)N[C@H](C(=O)N[C@@H](Cc1ccc(C#Cc2cnc(N3CC4CCC(C3)N4C3COC3)nc2)cc1)[C@H](CN(Cc1c(F)cc(-c2ccn(C(F)F)n2)cc1F)NC(=O)[C@@H](NC(=O)OC)C(C)(C)C(F)(F)F)OC(=O)OCOC(=O)CC(C)(C)c1c(CC(=O)N2CCN(S(C)(=O)=O)CC2)cc(C)cc1OP(=O)(O)O)C(C)(C)C(F)(F)F [Example 84] | 3.02 |  | 1594.8 | 0.0039 |  |  |  |  |  | 
9 | COC(=O)N[C@H](C(=O)N[C@@H](Cc1ccc(C#Cc2cnc(N3CC4CCC(C3)N4C3COC3)nc2)cc1)[C@H](CN(Cc1c(F)cc(-c2ccn(C(F)F)n2)cc1F)NC(=O)[C@@H](NC(=O)OC)C(C)(C)C(F)(F)F)OC(=O)CC(C)(C)c1c(CC(=O)N[C@@H](CC(=O)O)C(=O)O)cc(C)cc1OP(=O)(O)O)C(C)(C)C(F)(F)F [Example 23] | 11.7 | 4.54 (≈ 2840 µM) |  | 0.204 |  |  |  |  |  | 
10 | COC(=O)N[C@H](C(=O)N[C@@H](Cc1ccc(C#Cc2cnc(N3CC4CCC(C3)N4C3COC3)nc2)cc1)[C@H](CN(Cc1c(F)cc(-c2ccn(C(F)F)n2)cc1F)NC(=O)[C@@H](NC(=O)OC)C(C)(C)C(F)(F)F)OC(=O)CC(C)(C)c1c(CC(=O)NC(CCCC(=O)O)C(=O)O)cc(C)cc1OP(=O)(O)O)C(C)(C)C(F)(F)F (some centres unmarked) [Example 41] | 5.02 |  | 2074.8 | 0.0435 |  |  |  |  |  | 
